{
  "source": "ChEMBL document CHEMBL1132959",
  "about": "“Design of potent dicyclic (1-5/4-10) gonadotropin releasing hormone (GnRH) antagonists” (J Med Chem, 2000)",
  "note": "Bridge positions count the residues as written; N and C are the ends. Square brackets hold non-standard residues; d marks the D form. Peptide text beside a SMILES is read from it. dPhe(4-Cl) = N[C@H](Cc1ccc(Cl)cc1)C(=O)O; dPhe(4-F) = N[C@H](Cc1ccc(F)cc1)C(=O)O; d2Nal = N[C@H](Cc1ccc2ccccc2c1)C(=O)O; NMeL = CN[C@@H](CC(C)C)C(=O)O; ΔPro = O=C(O)[C@@H]1C=CCN1; Dap = NC[C@H](N)C(=O)O; βAla = NCCC(=O)O",
  "data": [
    {"organism": "Rattus norvegicus", "assay": "Antiovulatory potency at 1000 ug/rat expressed as rats ovulating by total no. of rats (4/4)", "format": "functional", "details": "not given", "values": [
      {"compound": "CC(=O)N[C@H](Cc1ccc2ccccc2c1)C(=O)N[C@@H]1CCC(=O)NCCCC[C@@H]2NC(=O)[C@H](CC(C)C)NC(=O)[C@@H](Cc3ccc4ccccc4c3)NC(=O)[C@H](CCCN=C(N)N)NC(=O)[C@H](CC(=O)NC[C@@H](C(N)=O)NC(=O)[C@@H]3CCCN3C2=O)NC(=O)[C@@H](Cc2cccnc2)NC1=O", "Ovulating rats": 4},
      {"compound": "CC(=O)N[C@H](Cc1ccc2ccccc2c1)C(=O)N[C@H](Cc1ccc(Cl)cc1)C(=O)N[C@@H]1CC(=O)NC[C@@H](C(=O)N2CCC[C@H]2C(=O)N[C@H](C)C(N)=O)NC(=O)[C@H](CC(C)C)NC(=O)[C@@H](Cc2ccc3ccccc3c2)NC(=O)[C@H](CCCN=C(N)N)NC(=O)[C@H](C)NC1=O", "note": "[listing 1 of 2 here]", "Ovulating rats": 4},
      {"compound": "CC(=O)N[C@H]1CCC(=O)NCCCC[C@@H](C(=O)N2CCC[C@H]2C(=O)N[C@@H](C)C(N)=O)NC(=O)[C@H](CC(C)C)NC(=O)[C@H](Cc2ccc3ccccc3c2)NC(=O)[C@H](CCCNC(=N)N)NC(=O)[C@H](C)NC(=O)[C@H](Cc2cccnc2)NC(=O)[C@H](Cc2ccc(Cl)cc2)NC1=O", "Ovulating rats": 4},
      {"compound": "CC(=O)N[C@@H]1CCC(=O)NCCCC[C@@H](C(=O)N2CCC[C@H]2C(=O)N[C@@H](C)C(N)=O)NC(=O)[C@H](CC(C)C)NC(=O)[C@H](Cc2ccc3ccccc3c2)NC(=O)[C@H](CCCNC(=N)N)NC(=O)[C@H](C)NC(=O)[C@H](Cc2cccnc2)NC(=O)[C@H](Cc2ccc(Cl)cc2)NC1=O", "Ovulating rats": 4},
      {"compound": "CC(=O)N[C@H](Cc1ccc2ccccc2c1)C(=O)N[C@@H]1CC(=O)NC[C@@H](C(=O)N2CCC[C@H]2C(=O)N[C@H](C)C(N)=O)NC(=O)[C@H](CC(C)C)NC(=O)[C@@H](Cc2ccc3ccccc3c2)NC(=O)[C@H](CCCNC(=N)N)NC(=O)[C@H](C)NC(=O)[C@@H](Cc2cccnc2)NC1=O", "Ovulating rats": 4},
      {"compound": "CC(=O)N[C@H](Cc1ccc2ccccc2c1)C(=O)N[C@H]1CC(=O)NCC(=O)NC[C@@H]2NC(=O)[C@H](Cc3ccc(O)cc3)NC(=O)[C@H](CC(=O)NC[C@@H](C(N)=O)NC(=O)[C@@H]3CCCN3C(=O)[C@H](CCCN=C(N)N)NC(=O)[C@H](CC(C)C)NC2=O)NC(=O)[C@@H](Cc2c[nH]c3ccccc23)NC1=O", "Ovulating rats": 4}
    ]},
    {"organism": "Rattus norvegicus", "assay": "Antiovulatory potency at 1 ug/rat expressed as rats ovulating by total no. of rats (5/7)", "format": "functional", "details": "not given", "values": [
      {"compound": "CC(=O)N[C@@H]1CC(=O)NCC(=O)NCC[C@H]2NC(=O)[C@@H](CC(=O)NC[C@H](C(N)=O)NC(=O)[C@H]3CCCN3C(=O)[C@H](CCCN=C(N)N)NC(=O)[C@@H](CC(C)C)NC(=O)[C@@H](Cc3ccc4ccccc4c3)NC2=O)NC(=O)[C@@H](Cc2ccc3ccccc3c2)NC(=O)[C@H](Cc2ccc(Cl)cc2)NC1=O", "Ovulating rats": 5}
    ]},
    {"organism": "Rattus norvegicus", "assay": "Antiovulatory potency at 2.5 ug/rat expressed as rats ovulating by total no. of rats (2/8)", "format": "functional", "details": "not given", "values": [
      {"compound": "CC(=O)N[C@@H]1CC(=O)NCC(=O)NCC[C@H]2NC(=O)[C@@H](CC(=O)NC[C@H](C(N)=O)NC(=O)[C@H]3CCCN3C(=O)[C@H](CCCN=C(N)N)NC(=O)[C@@H](CC(C)C)NC(=O)[C@@H](Cc3ccc4ccccc4c3)NC2=O)NC(=O)[C@@H](Cc2ccc3ccccc3c2)NC(=O)[C@H](Cc2ccc(Cl)cc2)NC1=O", "Ovulating rats": 2}
    ]},
    {"target": "T1, Gonadotropin-releasing hormone receptor (Rattus norvegicus, UniProt P30969)", "T1 sequence (P30969 whole entry)": "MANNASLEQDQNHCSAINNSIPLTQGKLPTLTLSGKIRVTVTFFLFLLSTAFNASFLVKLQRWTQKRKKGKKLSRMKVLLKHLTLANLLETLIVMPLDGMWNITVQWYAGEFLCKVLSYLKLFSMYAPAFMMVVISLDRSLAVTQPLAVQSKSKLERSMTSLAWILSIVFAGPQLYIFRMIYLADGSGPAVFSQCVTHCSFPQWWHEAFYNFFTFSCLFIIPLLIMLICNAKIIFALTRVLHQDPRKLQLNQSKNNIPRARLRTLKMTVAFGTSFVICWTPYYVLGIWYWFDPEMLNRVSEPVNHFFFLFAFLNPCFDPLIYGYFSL", "assay": "(§1) Affinity for rat gonadotrophin releasing hormone (GnRH) receptor using HEK293 cells transfected with rat Gonadotropin-releasing hormone receptor", "format": "cell-based", "details": "not given", "units": {"Ki": "nM"}, "values": [
      {"compound": "CC(=O)N1CC=C[C@H]1C(=O)N[C@H](Cc1ccc(F)cc1)C(=O)N[C@H](Cc1c[nH]c2ccccc12)C(=O)N[C@H]1CC(=O)NC[C@@H](C(N)=O)NC(=O)[C@@H]2CCCN2C(=O)[C@H](CCCN=C(N)N)NC(=O)[C@H](CC(C)C)NC(=O)[C@@H](Cc2ccc3ccccc3c2)NC(=O)[C@H](Cc2ccc(O)cc2)NC1=O", "note": "(Ac-[ΔPro][dPhe(4-F)][dW]DY[d2Nal]LRP[Dap]-NH2; lactam 4-10)", "Ki": 0.27},
      {"compound": "CC(=O)N[C@H](Cc1ccc2ccccc2c1)C(=O)N[C@H](Cc1ccc(Cl)cc1)C(=O)N[C@@H]1CC(=O)NCCC[C@@H](C(=O)N2CCC[C@H]2C(=O)N[C@H](C)C(N)=O)NC(=O)[C@H](CC(C)C)NC(=O)[C@@H](Cc2ccc3ccccc3c2)NC(=O)[C@H](CCCNC(=N)N)NC(=O)[C@H](C)NC1=O", "Ki": 14},
      {"compound": "CC(=O)N[C@H]1CC(=O)NCC(=O)NCC[C@@H]2NC(=O)[C@H](CC(=O)NC[C@@H](C(N)=O)NC(=O)[C@@H]3CCCN3C(=O)[C@H](CCCN=C(N)N)NC(=O)[C@H](CC(C)C)NC(=O)[C@@H](Cc3ccc4ccccc4c3)NC2=O)NC(=O)[C@@H](Cc2c[nH]c3ccccc23)NC(=O)[C@@H](Cc2ccc(Cl)cc2)NC1=O", "Ki": 0.22},
      {"compound": "CC(=O)N[C@H](Cc1ccc2ccccc2c1)C(=O)N[C@H](Cc1ccc(Cl)cc1)C(=O)N[C@@H]1CC(=O)NC[C@@H](C(=O)N2CCC[C@H]2C(=O)N[C@H](C)C(N)=O)NC(=O)[C@H](CC(C)C)NC(=O)[C@@H](Cc2ccc3ccccc3c2)NC(=O)[C@H](CCCN=C(N)N)NC(=O)[C@H](C)NC1=O", "note": "[listing 2 of 2 here]", "Ki": 21},
      {"compound": "CC(C)C[C@H]1C(=O)N[C@@H](CCCN=C(N)N)C(=O)N2CCC[C@H]2C(=O)NCCC(=O)N2CC=C[C@H]2C(=O)N[C@H](Cc2ccc(Cl)cc2)C(=O)N[C@H](Cc2c[nH]c3ccccc23)C(=O)N[C@@H](CO)C(=O)N[C@@H](Cc2ccc(O)cc2)C(=O)N[C@H](Cc2c[nH]c3ccccc23)C(=O)N1C", "note": "(cyclo([NMeL]RP[βAla][ΔPro][dPhe(4-Cl)][dW]SY[dW]))", "Ki": 14},
      {"compound": "CC(=O)N[C@H]1CCC(=O)NCC(=O)NCC[C@@H]2NC(=O)[C@H](CC(=O)NC[C@@H](C(N)=O)NC(=O)[C@@H]3CCCN3C(=O)[C@H](CCCNC(=N)N)NC(=O)[C@H](CC(C)C)NC(=O)[C@@H](Cc3ccc4ccccc4c3)NC2=O)NC(=O)[C@@H](Cc2c[nH]c3ccccc23)NC(=O)[C@@H](Cc2ccc(Cl)cc2)NC1=O", "Ki": 0.24}
    ]},
    {"target": "T1, Gonadotropin-releasing hormone receptor", "assay": "as §1", "format": "cell-based", "details": "hek293", "units": {"Ki": "nM"}, "values": [
      {"compound": "CC(=O)N[C@H]1CCC(=O)NCCCC[C@@H](C(=O)N2CCC[C@H]2C(=O)N[C@@H](C)C(N)=O)NC(=O)[C@H](CC(C)C)NC(=O)[C@H](Cc2ccc3ccccc3c2)NC(=O)[C@H](CCCNC(=N)N)NC(=O)[C@H](C)NC(=O)[C@H](Cc2cccnc2)NC(=O)[C@H](Cc2ccc(Cl)cc2)NC1=O", "Ki": 62},
      {"compound": "CC(=O)N[C@@H]1CCC(=O)NCCCC[C@@H](C(=O)N2CCC[C@H]2C(=O)N[C@@H](C)C(N)=O)NC(=O)[C@H](CC(C)C)NC(=O)[C@H](Cc2ccc3ccccc3c2)NC(=O)[C@H](CCCNC(=N)N)NC(=O)[C@H](C)NC(=O)[C@H](Cc2cccnc2)NC(=O)[C@H](Cc2ccc(Cl)cc2)NC1=O", "Ki": 55},
      {"compound": "CC(=O)N[C@@H]1CC(=O)NCC(=O)NCC[C@H]2NC(=O)[C@@H](CC(=O)NC[C@H](C(N)=O)NC(=O)[C@H]3CCCN3C(=O)[C@H](CCCN=C(N)N)NC(=O)[C@@H](CC(C)C)NC(=O)[C@@H](Cc3ccc4ccccc4c3)NC2=O)NC(=O)[C@@H](Cc2ccc3ccccc3c2)NC(=O)[C@H](Cc2ccc(Cl)cc2)NC1=O", "Ki": 0.38},
      {"compound": "CC(=O)N[C@H](Cc1ccc2ccccc2c1)C(=O)N[C@H]1CC(=O)NCC(=O)NC[C@@H]2NC(=O)[C@H](Cc3ccc(O)cc3)NC(=O)[C@H](CC(=O)NC[C@@H](C(N)=O)NC(=O)[C@@H]3CCCN3C(=O)[C@H](CCCN=C(N)N)NC(=O)[C@H](CC(C)C)NC2=O)NC(=O)[C@@H](Cc2c[nH]c3ccccc23)NC1=O", "Ki": 490}
    ]}
  ]
}
